Among the test systems are OVCAR-4 ovarian; HCC-2998 colon; UACC-62 melanoma; KM12 colon; NCI-H460 lung; RXF 393 renal; SW-620 colon; M14 melanoma; A498 renal; SK-MEL-2 melanoma.
Common to all, as to test: inhibition of tumour cell growth, NCI panel, 48 h

Structures are written as SMILES.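 In this assay, cells in 96-well plates receive the compound at five concentrations for 48 hours. Endpoints are linearly interpolated between the surrounding concentrations. Abbreviation: GI50, concentration required for 50% inhibition of growth. At the TGI there is no net growth.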 Where only a bound is given, the exact number is not on record here.

As for `COc1ccc(-n2nc(C)c3c(Nc4ccc(NC(=O)Nc5cc(C(F)(F)F)ccc5F)cc4)ncnc32)cc1`, the GI50 is 2.83 µM in the assay with OVCAR-4 ovarian; 3.19 µM in the assay on HCC-2998 colon; 1.88 µM with UACC-62 melanoma; 2.55 µM in the assay with KM12 colon; 2.89 µM with NCI-H460 lung; 1.09 µM with RXF 393 renal. The GI50 was 3.45 µM in the assay with SW-620 colon, 1.9 µM in the assay with M14 melanoma, 2.82 µM in the assay with A498 renal and 2.35 µM with SK-MEL-2 melanoma. The TGI in the assay on OVCAR-4 ovarian is over 100 µM; in the assay on HCC-2998 colon, 15.5 µM; with UACC-62 melanoma, 4.34 µM; in the assay on KM12 colon it was 7.32 µM; with NCI-H460 lung, 8.7 µM; in the assay on RXF 393 renal, 2.82 µM. The TGI stood at 22.6 µM in the assay with SW-620 colon, 4.64 µM with M14 melanoma, 7.18 µM with A498 renal and 4.91 µM in the assay with SK-MEL-2 melanoma.

For `CC[O+]=c1cccc2ssnc1-2`, the TGI in the assay with OVCAR-4 ovarian, in the assay with HCC-2998 colon, with UACC-62 melanoma, with KM12 colon, in the assay on NCI-H460 lung and in the assay with RXF 393 renal was over 100 µM each time. Further, the TGI in the assay on SW-620 colon, in the assay on M14 melanoma, in the assay on A498 renal and in the assay on SK-MEL-2 melanoma was over 100 µM in each case.

For the compound `CC(=O)C1C(=O)C(=O)N(c2ccc(Cl)cc2C)C1=O` (stereo not given), the TGI with OVCAR-4 ovarian, with HCC-2998 colon, in the assay with UACC-62 melanoma, in the assay with KM12 colon, in the assay on NCI-H460 lung and in the assay on RXF 393 renal was over 100 µM throughout. Also, the TGI in the assay on SW-620 colon, with M14 melanoma, with A498 renal and in the assay with SK-MEL-2 melanoma was over 100 µM throughout.

As for `CNC1=C(Br)C(=O)C2=C(C1=O)C1C3=C(C(=O)C=CC3=O)C2c2ccccc21` (stereo not given), the GI50 in the assay with OVCAR-4 ovarian was 1.76 µM; with HCC-2998 colon it was 3.74 µM; in the assay on UACC-62 melanoma, 2.52 µM; in the assay on KM12 colon it was 14.4 µM; in the assay with NCI-H460 lung, 18.6 µM; with RXF 393 renal it was 2.57 µM. Also, the GI50 in the assay on SW-620 colon is 2.79 µM; with M14 melanoma, 1.98 µM; in the assay on A498 renal it was 24.9 µM; in the assay with SK-MEL-2 melanoma, 11 µM. The TGI with OVCAR-4 ovarian is 4.93 µM; with HCC-2998 colon, 11.4 µM; with UACC-62 melanoma it was 6.85 µM; in the assay on KM12 colon, 48.7 µM; with NCI-H460 lung, over 85.7 µM; with RXF 393 renal, 4.72 µM. Besides, the TGI is over 29.1 µM in the assay with SW-620 colon, 11.5 µM in the assay on M14 melanoma, 40.7 µM with A498 renal and over 28.4 µM with SK-MEL-2 melanoma.

With `COc1ccc(S(=O)(=O)N2CCCCC2)cc1NC(=O)c1[nH]c(C)c2c1CCCCC2=O`, the GI50 in the assay on OVCAR-4 ovarian is 2.11 µM; in the assay with HCC-2998 colon it was 1.73 µM; with UACC-62 melanoma, 0.356 µM; in the assay with KM12 colon it was 4.36 µM; in the assay on NCI-H460 lung, 4.01 µM; in the assay on RXF 393 renal, 0.818 µM. The GI50 in the assay on SW-620 colon is 8.04 µM; in the assay with M14 melanoma, 1.49 µM; in the assay on A498 renal it was 1.08 µM; with SK-MEL-2 melanoma, 2.4 µM. Also, the TGI in the assay on OVCAR-4 ovarian was over 100 µM; in the assay on HCC-2998 colon it was 11.1 µM; in the assay with UACC-62 melanoma, 7.74 µM; in the assay on KM12 colon, over 100 µM; in the assay with NCI-H460 lung, over 100 µM; in the assay on RXF 393 renal, 4.09 µM. Also, the TGI is over 100 µM in the assay on SW-620 colon, over 100 µM in the assay with M14 melanoma, 3.98 µM with A498 renal and 31 µM with SK-MEL-2 melanoma.

With `CN(C)c1ccc2c(SCC(=O)OCC(=O)[C@@]3(O)CC[C@H]4[C@@H]5CCC6=CC(=O)C=C[C@]6(C)[C@H]5C(=O)C[C@@]43C)c3ccc(N(C)C)cc3nc2c1`, the TGI in the assay with OVCAR-4 ovarian was over 72.1 µM; in the assay on HCC-2998 colon, over 100 µM; in the assay with UACC-62 melanoma, 54.6 µM; in the assay with KM12 colon it was over 100 µM; in the assay with NCI-H460 lung, over 45.7 µM; with RXF 393 renal it was over 57 µM. Also, the TGI in the assay with SW-620 colon was over 100 µM; in the assay on M14 melanoma it was over 100 µM; with A498 renal, over 96.2 µM; in the assay with SK-MEL-2 melanoma, over 100 µM.

As to `COc1cc(C(C)c2cc3c(cc2OCCOCCOc2cc4c(cc2C(C)c2cc(OC)c(OC)c(OC)c2)OCO4)OCO3)cc(OC)c1OC` (stereo not given), the GI50 with OVCAR-4 ovarian, in the assay with HCC-2998 colon, with UACC-62 melanoma, in the assay on KM12 colon, in the assay on NCI-H460 lung and in the assay on RXF 393 renal was over 100 µM throughout. Moreover, the GI50 in the assay with SW-620 colon, in the assay with M14 melanoma, with A498 renal and in the assay on SK-MEL-2 melanoma was over 100 µM each time. Also, the TGI with OVCAR-4 ovarian, with HCC-2998 colon, in the assay on UACC-62 melanoma, in the assay with KM12 colon, in the assay on NCI-H460 lung and with RXF 393 renal was over 100 µM each time. The TGI in the assay on SW-620 colon, with M14 melanoma, in the assay on A498 renal and in the assay on SK-MEL-2 melanoma was over 100 µM throughout.

As to `[O-]c1c(-c2ccccc2)[se]c(-c2ccccc2)[n+]1-c1ccccc1`, the TGI amounted to 5.95 µM in the assay on OVCAR-4 ovarian; 19.3 µM in the assay on HCC-2998 colon; 27.5 µM in the assay with UACC-62 melanoma; 23.1 µM with KM12 colon; 38.7 µM in the assay on NCI-H460 lung; 8.45 µM in the assay with RXF 393 renal. Further, the TGI stood at 34.2 µM in the assay with SW-620 colon, 17.6 µM with M14 melanoma, 26.7 µM in the assay with A498 renal and 19.8 µM in the assay on SK-MEL-2 melanoma.

Take `C/C(=C\c1ccccc1)C(O)S(=O)(=O)O` (stereo not given): the TGI in the assay on OVCAR-4 ovarian, in the assay with HCC-2998 colon, with UACC-62 melanoma, in the assay with KM12 colon, with NCI-H460 lung and with RXF 393 renal was over 100 µM in each case. Moreover, the TGI in the assay on SW-620 colon, with M14 melanoma, in the assay with A498 renal and with SK-MEL-2 melanoma was over 100 µM throughout.

Take `CCOc1ccccc1N=C(NC(=O)CC)SC`: the GI50 in the assay with OVCAR-4 ovarian was over 10 µM; in the assay with HCC-2998 colon, over 100 µM; with UACC-62 melanoma it was over 100 µM; with KM12 colon, over 100 µM; in the assay on NCI-H460 lung, over 100 µM; with RXF 393 renal, over 100 µM. Besides, the GI50 in the assay with SW-620 colon was over 100 µM; in the assay on M14 melanoma it was over 100 µM; with A498 renal, over 100 µM; with SK-MEL-2 melanoma it was over 10 µM. Besides, the TGI in the assay on OVCAR-4 ovarian, in the assay with HCC-2998 colon, in the assay with UACC-62 melanoma, in the assay on KM12 colon, with NCI-H460 lung and with RXF 393 renal was over 100 µM throughout. For the same compound, the TGI in the assay on SW-620 colon, with M14 melanoma, in the assay with A498 renal and in the assay on SK-MEL-2 melanoma was over 100 µM in each case.

Take `Cc1ccc(S(=O)(=O)NC(C)C(=O)O)cc1` (stereo not given): the TGI in the assay with OVCAR-4 ovarian, with HCC-2998 colon, in the assay with UACC-62 melanoma, in the assay with KM12 colon, in the assay with NCI-H460 lung and in the assay with RXF 393 renal was over 100 µM throughout. Besides, the TGI in the assay with SW-620 colon, in the assay with M14 melanoma, in the assay with A498 renal and in the assay with SK-MEL-2 melanoma was over 100 µM in each case.

Turning to `C[C@]1(O)CC(=O)[C@]2(O)C3=C(C=C[C@]2(O)C1)C(=O)c1c(O)cccc1C3=O`, the GI50 with OVCAR-4 ovarian was 1.44 µM; in the assay with HCC-2998 colon it was 7.59 µM; in the assay with UACC-62 melanoma it was 1.86 µM; with KM12 colon, 14 µM; in the assay with NCI-H460 lung it was 5.15 µM; in the assay with RXF 393 renal, 1.46 µM. Further, the GI50 is 1.2 µM with SW-620 colon, 1.7 µM in the assay on M14 melanoma, 13 µM in the assay on A498 renal and 2.47 µM with SK-MEL-2 melanoma. For the same compound, the TGI in the assay on OVCAR-4 ovarian worked out at 2.79 µM; in the assay on HCC-2998 colon, 20.7 µM; in the assay on UACC-62 melanoma, 3.91 µM; with KM12 colon, 40.7 µM; in the assay on NCI-H460 lung it was 23.8 µM; in the assay on RXF 393 renal, 2.85 µM. In addition, the TGI in the assay on SW-620 colon amounted to 3.35 µM; with M14 melanoma, 3.45 µM; with A498 renal, 25.9 µM; in the assay on SK-MEL-2 melanoma it was 5.56 µM.

With `COc1cc2c3c(n(CCCn4cccn4)c(=O)c2cc1OC)-c1cc2c(cc1C3=O)OCO2`, the GI50 in the assay with OVCAR-4 ovarian was 19.7 µM; in the assay with HCC-2998 colon it was 7.13 µM; in the assay on UACC-62 melanoma it was 0.359 µM; with KM12 colon, 5.11 µM; in the assay on NCI-H460 lung, 0.52 µM; in the assay with RXF 393 renal, 5.76 µM. For the same compound, the GI50 in the assay on SW-620 colon was 1.39 µM; in the assay with M14 melanoma, 0.461 µM; in the assay on A498 renal, 2.48 µM; in the assay with SK-MEL-2 melanoma, 59.9 µM. The TGI with OVCAR-4 ovarian is 66.1 µM; with HCC-2998 colon, 64 µM; with UACC-62 melanoma, 1.78 µM; with KM12 colon, over 54.5 µM; in the assay on NCI-H460 lung it was 13.3 µM; in the assay on RXF 393 renal it was 27.7 µM. In addition, the TGI in the assay on SW-620 colon was over 100 µM; in the assay with M14 melanoma it was 5.07 µM; in the assay on A498 renal it was 14.2 µM; in the assay on SK-MEL-2 melanoma, over 100 µM.
